# What was measured:
# [1] = test system: HUVEC; experiment: 5-FU cytotoxicity on HUVEC according to D-glucose or L-glucose concentration (MTS); type: cell-based, human
# Protocol: An MTS cell proliferation assay was conducted to evaluate the cytotoxic effect of 5-FU on HUVEC according to D-glucose concentration under different pH conditions.
# The cells were then incubated for an additional 24 hours in DMEM medium containing various concentrations of glucose.
# To assess the cytotoxic effect of L-glucose on HUVEC, the experiment was conducted in the same manner as described in Example 2, Section 3.
# To assess the cytotoxic effect of D-glucose or L-glucose on HUVEC, the experiment was conducted in the same manner as described in Example 2, Section 3.
# [2] = test system: HUVEC; experiment: Intracellular ROS generation in HUVEC (DCF-DA staining); type: cell-based, human
# Protocol: The effect of D-glucose on intracellular reactive oxygen species (ROS) generation in HUVEC was measured using the DCF-DA staining method. HUVEC cells (25,000 per well) were cultured in a 96-well microplate with a dark, clear bottom. After 24 hours of incubation, the cells were treated with D-glucose at concentrations of 10 mM, 25 mM, 50 mM, 100 mM, 125 mM, 150 mM, 200 mM, and 250 mM. Following drug treatment, the culture medium was removed, and the cells were washed with 100 μL/well of Hanks' Balanced Salt Solution (HBSS) buffer. After washing, 100 μL/well of diluted DCFDA was added, and the […]. The cells were then incubated in diluted DCFDA solution for 45 minutes at 37 °C in the dark. Following incubation, the DCFDA solution was removed, and 100 μL of HBSS buffer was added. Fluorescence was immediately measured using a fluorescence plate reader at Ex/Em=485/535 nm.
# The effect of L-glucose on intracellular ROS generation was measured using the same method as for D-glucose.
# [3] = test system: blood pressure; settings: administered into blood vessels; cited from earlier work
# [4] = test system: HUVEC; experiment: HUVEC cytotoxicity according to L-NMMA concentration (MTS); type: cell-based, human; settings: L-NMMA alone, FIG. 19
# Protocol: The cells were then incubated for an additional 24 hours in DMEM medium containing various L-NMMA concentrations. Following incubation, the cells were washed twice with PBS, and 100 μL of fresh DMEM growth medium was added. The cells were then further incubated for 48 hours.
# [5] = test system: platelets; settings: L-NMMA alone, physiological conditions; cited from earlier work
# [6] = test system: hexokinase; settings: role: substrate; first enzyme in glycolysis; cited from earlier work
# [7] = test system: human body; settings: in vivo; cited from earlier work
# [8] = test system: advanced gastric cancer; settings: combined with fluoropyrimidine-cisplatin therapy; cited from earlier work
# [9] = test system: human gastric cancer cells; experiment: Human gastric cancer cell xenograft in nude mice, bevacizumab local injection; type: in vivo, nude mice (Crj: BALB/c-nu/nu), human tumor cells; settings: 1 mg bevacizumab, three times at one-week intervals
# Protocol: The animals used in the experiment were three male nude mice (Crj: BALB/c-nu/nu, male), each weighing approximately 30 g and five weeks old, produced by Orient. The mice underwent a one-week acclimatization period in the laboratory before use. Human gastric cancer cells (5×10^6 cells/100 μL in PBS) were xenografted into the subcutaneous fat layer on the dorsal side of each nude mouse. The tumor size was measured periodically, and drug administration was initiated when the tumor reached a diameter of 1 cm.
# The experimental animals were administered 1 mg of bevacizumab by injecting 0.2 cc adjacent to the tumor three times at one-week intervals.
# [10] = D-glucose, L-glucose and mixtures with 5-FU, FIG. 15
compound,measurement,setting,value
O=C[C@H](O)[C@@H](O)[C@H](O)[C@H](O)CO [D-glucose],cell viability,"[1]; D-glucose at both 5 mM and 25 mM, FIG. 13",significantly reduced cell viability
same,cell viability,[1]; [10],significantly reduced cell viability
same,ROS generation with increasing concentration,"[2]; D-glucose 10 mM to 250 mM, FIG. 11A",increased
"CN=C(N)NCCC[C@H](N)C(=O)O [L-NMMA, N^G-Methyl-L-arginine]",blood pressure,[3],effectively increases blood pressure
same,cell viability,[4],significantly reduced cell viability
same,platelet activation in vivo,[5],does not activate platelets in vivo
O=C[C@@H](O)[C@H](O)[C@@H](O)[C@@H](O)CO [L-glucose],cell viability,[1]; [10],significantly reduced cell viability
same,"cell viability, comparison among D-glucose, L-glucose and mixtures",[1]; FIG. 15,more pronounced reduction in cell viability
same,cell viability,"[1]; L-glucose at both 5 mM and 25 mM, FIG. 14",significantly reduced cell viability
same,phosphorylation by hexokinase,[6],not phosphorylated by hexokinase
same,toxicity to the human body,[7],non-toxic to the human body
same,ROS generation with increasing concentration,"[2]; L-glucose, FIG. 11B",decreased
bevacizumab: recombinant humanized monoclonal antibody designed to inhibit vascular endothelial growth factor (VEGF),progression-free survival and overall response rate,[8],improves progression-free survival and overall response rate
same,tumor size for the following two months,[9],did not change
same,tumor size in the third month,[9],began to increase
same,tumor size four weeks after drug administration compared to before injection,"[9]; P>0.05, FIG. 20",remained nearly unchanged
